The target in data set [1] is T1, Calcitonin gene-related peptide type 1 receptor (Homo sapiens, UniProt O60894+Q16602). The experiment in a line: Antagonist activity at human recombinant CL receptor /RAMP1 assessed as inhibition of cAMP accumulation by cell based assay. The format is functional. (In general: cAMP levels reflect the balance of adenylyl cyclase and phosphodiesterase activity.)
Data set [2] has as its target T1, Calcitonin gene-related peptide type 1 receptor. Put plainly: Antagonist activity at human recombinant CL receptor /RAMP1 assessed as inhibition of cAMP accumulation in presence of 50% human serum by cell based assay. The class given is functional.
The target is the same in data set [3]. Put plainly: Displacement of [125I]CGRP from human recombinant CL receptor /RAMP1. (In general: Displacement assays read how much labelled ligand stays bound in the presence of the test substance.)
The nature of data set [4]: Clearance in dog at 0.5 mg/kg, iv and 1.0 mg/kg, po. The class given is ADME, organism-based, Canis lupus familiaris. To be noted: in vivo.
A short description of data set [5]: Bioavailability in dog at 1.0 mg/kg, po. To be noted: in vivo. The class given is ADME, organism-based, Canis lupus familiaris.
Data set [6] can be described thus: Half life in dog at 0.5 mg/kg, iv and 1.0 mg/kg, po. To be noted: in vivo. The format is ADME, organism-based, Canis lupus familiaris.
Data set [7] is described as follows: Cmax in dog at 0.5 mg/kg, iv and 1.0 mg/kg, po. The class given is ADME, organism-based, Canis lupus familiaris. As to conditions: in vivo.
Data set [8] can be described thus: Half life in rat at 2.0 mg/kg, iv and 10 mg/kg, po. The class given is ADME, organism-based. As to conditions: in vivo.
A short description of data set [9]: Clearance in rat at 2.0 mg/kg, iv and 10 mg/kg, po. The format is ADME, organism-based. As to conditions: in vivo.
A short description of data set [10]: Bioavailability in rat at 10 mg/kg, po. The class given is ADME, organism-based. To be noted: in vivo.
The nature of data set [11]: Cmax in rat at 2.0 mg/kg, iv and 10 mg/kg, po. The format is ADME, organism-based. To be noted: in vivo.

These results are taken from ChEMBL document CHEMBL1143152, “Calcitonin gene-related peptide (CGRP) receptor antagonists: investigations of a pyridinone template” (Bioorg Med Chem Lett, 2008).

T1 sequence (Q16602 whole entry, one chain of several): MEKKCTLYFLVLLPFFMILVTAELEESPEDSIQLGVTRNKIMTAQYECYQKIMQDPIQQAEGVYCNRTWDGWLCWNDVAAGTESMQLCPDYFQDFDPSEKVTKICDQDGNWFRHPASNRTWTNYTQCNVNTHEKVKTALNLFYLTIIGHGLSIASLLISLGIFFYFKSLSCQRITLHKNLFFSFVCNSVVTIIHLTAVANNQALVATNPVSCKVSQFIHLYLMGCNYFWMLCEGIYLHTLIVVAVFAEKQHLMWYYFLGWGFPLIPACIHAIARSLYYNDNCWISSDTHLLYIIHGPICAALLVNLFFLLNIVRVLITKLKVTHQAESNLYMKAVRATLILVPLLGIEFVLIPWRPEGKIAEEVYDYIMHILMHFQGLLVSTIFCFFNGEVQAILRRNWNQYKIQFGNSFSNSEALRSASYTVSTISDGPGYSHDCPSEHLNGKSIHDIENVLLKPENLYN

As usually defined, the IC50 is the concentration at which inhibition is half-maximal. For orientation: Ki means the equilibrium dissociation constant of an inhibitor or competing ligand from its target. `O=C(Nc1cc(-c2ccc(O)cc2)cn(CC(F)(F)F)c1=O)N1CCC(n2c(=O)[nH]c3ncccc32)CC1`: the half-maximal inhibitory concentration (IC50) in [1] was found to be 282 nM; in data set [2] it was 971 nM. Besides, the Ki in [3] is 96 nM.
Usually bioavailability stands for dose-corrected exposure relative to a reference, in per cent. A low value points to poor availability. Broadly, the half-life is how long it takes for the measured level to halve. For orientation: Cmax means the peak of the concentration-time curve. On to `O=C(Nc1cc(-c2cccnc2)cn(CC(F)(F)F)c1=O)N1CCC(n2c(=O)[nH]c3ncccc32)CC1`, for which, in [1], the IC50 was 651 nM. The compound also came in with a clearance in data set [4] of 0.3 mL/min/kg. The same compound showed a bioavailability in data set [5] of 56%. Moreover, the half-life in [6] was 5.4 h. Besides, the Cmax in data set [7] came out at 7.4 µM. For the same compound, the Ki in data set [3] was 635 nM.
As to `O=C(Nc1cc(-c2ccccc2)cn(CC(F)(F)F)c1=O)N1CCC(n2c(=O)[nH]c3ncccc32)CC1`, the IC50 in [1] turned out to be 209 nM. Further, the clearance in data set [4] worked out at 0.2 mL/min/kg; in [9] it was 2.3 mL/min/kg. In addition, the bioavailability is 58% in data set [5] and 31% in data set [10]. The half-life in data set [8] was 2.5 h; in [6], 3.7 h. In addition, the Cmax is 5.3 µM in data set [11] and 10.3 µM in data set [7]. Further, the Ki in data set [3] was found to be 95 nM.
As for `O=C(Nc1cc(-c2ccsc2)cn(CC(F)(F)F)c1=O)N1CCC(n2c(=O)[nH]c3ncccc32)CC1`, in data set [1], the half-maximal inhibitory concentration (IC50) was 345 nM. This compound showed a half-life in data set [8] of 0.9 h. This compound also gave a clearance in [9] of 9.6 mL/min/kg. In addition, in data set [10], the bioavailability is 44%. Besides, in data set [11], the Cmax was found to be 5.1 µM. Besides, in data set [3], the Ki came to 105 nM.
As to `COCCn1cc(-c2ccn[nH]2)cc(NC(=O)N2CCC(n3c(=O)[nH]c4ncccc43)CC2)c1=O`, the half-maximal inhibitory concentration (IC50) in [1] was 307 nM; in [2], 394 nM. The Ki in data set [3] stood at 140 nM.
In the case of `COCCn1cc(-c2cccnc2)cc(NC(=O)N2CCC(n3c(=O)[nH]c4ncccc43)CC2)c1=O`, the IC50 in data set [1] turned out to be 1190 nM. Besides, the inhibitory constant (Ki) in data set [3] is 695 nM.
On the same counts, the results for `O=C(Nc1cc(-c2ccccc2)cn(CC2CC2)c1=O)N1CCC(n2cc(-c3ccccc3)[nH]c2=O)CC1` are 360 nM and 80 nM.
As for `COc1ccc(-c2cc(NC(=O)N3CCC(n4c(=O)[nH]c5ncccc54)CC3)c(=O)n(C)c2)cc1`, the IC50 in [1] came to 1530 nM. Besides, in data set [3], the Ki was determined as 495 nM.
`COCCn1cc(-c2ccsc2)cc(NC(=O)N2CCC(n3c(=O)[nH]c4ncccc43)CC2)c1=O`: the IC50 in [1] was 540 nM. The compound also had a half-life in data set [8] of 2.8 h. Also, the clearance in data set [9] stood at 23.5 mL/min/kg. In [10], the bioavailability stood at 1%. Also, the highest concentration (Cmax) in data set [11] was found to be 0.08 µM. Also, the inhibitory constant (Ki) in [3] stood at 390 nM.
For the compound `O=C(Nc1cc(-c2cccc(F)c2)cn(CC(F)(F)F)c1=O)N1CCC(n2c(=O)[nH]c3ncccc32)CC1`, the IC50 in data set [1] amounted to 119 nM. Further, in data set [3], the Ki turned out to be 42 nM.
As to `Cn1cc(-c2ccc(C(=O)O)cc2)cc(NC(=O)N2CCC(n3c(=O)[nH]c4ncccc43)CC2)c1=O`, in data set [3], the inhibition constant Ki was 9000 nM.
As for `COCCn1cc(-c2cccc(F)c2F)cc(NC(=O)N2CCC(n3c(=O)[nH]c4ncccc43)CC2)c1=O`, the IC50 was 164 nM in [1] and 1000 nM in data set [2]. Besides, the inhibition constant (Ki) in [3] stood at 41 nM.
`O=C(Nc1cc(-c2cccc(F)c2F)cn(CC(F)(F)F)c1=O)N1CCC(n2c(=O)[nH]c3ncccc32)CC1`: the IC50 in data set [1] is 18 nM; in [2] it was 811 nM. For the same compound, the clearance came out at 0.2 mL/min/kg in [4] and 0.8 mL/min/kg in data set [9]. For the same compound, the bioavailability in data set [5] is 65%; in data set [10], 34%. The half-life is 6.3 h in data set [8] and 3.3 h in data set [6]. Moreover, the highest concentration (Cmax) in data set [11] and in data set [7] was 9.4 µM throughout. The Ki in data set [3] was 17 nM.
For the compound `Cn1cc(-c2ccsc2)cc(NC(=O)N2CCC(n3c(=O)[nH]c4ncccc43)CC2)c1=O`, in data set [1], the half-inhibitory concentration (IC50) came out at 330 nM. This compound showed a half-life in [8] of 1 h. The compound further came in with a clearance in data set [9] of 8.9 mL/min/kg. The bioavailability in data set [10] came to 47%. Besides, the Cmax in [11] was determined as 7.4 µM. Further, the Ki in [3] came out at 75 nM.
Turning to `Cn1cc(-c2ccccc2F)cc(NC(=O)N2CCC(n3c(=O)[nH]c4ncccc43)CC2)c1=O`, the IC50 in data set [1] is 477 nM. Further, the inhibition constant (Ki) in data set [3] is 213 nM.
Take `Cn1cc(C2C=CN=N2)cc(NC(=O)N2CCC(n3c(=O)[nH]c4ncccc43)CC2)c1=O` (stereo not given): the IC50 stood at 184 nM in data set [1] and 872 nM in [2]. The clearance in [4] turned out to be 2.8 mL/min/kg. Moreover, in data set [5], the bioavailability was 6%. The compound further gave a half-life in data set [6] of 1.2 h. Besides, the highest concentration (Cmax) in data set [7] was 0.3 µM. Also, the inhibition constant (Ki) in [3] is 71 nM.
Take `Cn1cc(-c2ncccn2)cc(NC(=O)N2CCC(n3c(=O)[nH]c4ncccc43)CC2)c1=O`: in data set [3], the Ki is 1900 nM.
For `Cn1cc(-c2ccccc2)cc(NC(=O)N2CCC(n3c(=O)[nH]c4ncccc43)CC2)c1=O`, the half-inhibitory concentration (IC50) came out at 495 nM in [1] and 10900 nM in [2]. The compound further had a half-life in data set [8] of 3 h. The compound further registered a clearance in data set [9] of 1.3 mL/min/kg. In data set [10], this compound gave a bioavailability of 40%. Further, the Cmax in data set [11] was found to be 20.3 µM. Further, in data set [3], the Ki came to 498 nM.
Turning to `Cn1cc(-c2cccc(F)c2)cc(NC(=O)N2CCC(n3c(=O)[nH]c4ncccc43)CC2)c1=O`, in data set [1], the IC50 was found to be 337 nM. The Ki in data set [3] was 155 nM.
For the compound `Cn1cc(-c2cccc(O)c2)cc(NC(=O)N2CCC(n3c(=O)[nH]c4ncccc43)CC2)c1=O`, the IC50 in [1] came out at 142 nM; in data set [2], 715 nM. In addition, the Ki in data set [3] amounted to 42 nM.
`Cn1cc(-c2ccc(O)cc2)cc(NC(=O)N2CCC(n3c(=O)[nH]c4ncccc43)CC2)c1=O`: in data set [1], the IC50 was 88 nM. The clearance came out at 0.6 mL/min/kg in data set [4] and 16.1 mL/min/kg in data set [9]. The figures for the bioavailability in data set [5] and in data set [10] were 3% and 2%, respectively. For the same compound, the half-life is 1.1 h in data set [8] and 2.9 h in data set [6]. In addition, the Cmax in data set [11] amounted to 0.1 µM; in [7], 0.6 µM. Moreover, the Ki in [3] was determined as 43 nM.
For `Cn1cc(-c2ccccc2O)cc(NC(=O)N2CCC(n3c(=O)[nH]c4ncccc43)CC2)c1=O`, the IC50 in [1] was found to be 827 nM. In [3], the Ki was 220 nM.
For the compound `COCCn1cc(-c2ccc(O)cc2)cc(NC(=O)N2CCC(n3c(=O)[nH]c4ncccc43)CC2)c1=O`, the IC50 was 170 nM in data set [1] and 280 nM in data set [2]. Besides, the Ki in data set [3] turned out to be 74 nM.
In the case of `COCCn1cc(-c2ccccc2)cc(NC(=O)N2CCC(n3c(=O)[nH]c4ncccc43)CC2)c1=O`, in data set [1], the IC50 was determined as 665 nM. In data set [8], this compound gave a half-life of 0.5 h. This compound had a clearance in [9] of 25.3 mL/min/kg. Moreover, in [10], the bioavailability came out at 37%. Moreover, in data set [11], the concentration peaked (Cmax) at 1.3 µM. The Ki in data set [3] came to 228 nM.
As to `O=C(Nc1cc(-c2ccn[nH]2)cn(CC(F)(F)F)c1=O)N1CCC(n2c(=O)[nH]c3ncccc32)CC1`, the IC50 in data set [1] came to 550 nM; in data set [2], 1420 nM. Besides, the inhibition constant Ki in [3] is 205 nM.
As for `O=C(Nc1ccc(-c2ccccc2)n(CC2CC2)c1=O)N1CCC(n2cc(-c3ccccc3)[nH]c2=O)CC1`, in [3], the inhibitory constant (Ki) was found to be 3400 nM.
As for `Cn1cc(-c2cccnc2)cc(NC(=O)N2CCC(n3c(=O)[nH]c4ncccc43)CC2)c1=O`, in data set [1], the IC50 was determined as 1070 nM. The inhibition constant Ki in data set [3] was 270 nM.
The matching figures for `O=C(Nc1cc(-c2ccccc2)cn(CC2CC2)c1=O)N1CCC(n2c(=O)[nH]c3ncccc32)CC1`: 302 nM and 170 nM.
Turning to `Cn1cc(-c2ccc(S(C)(=O)=O)cc2)cc(NC(=O)N2CCC(n3c(=O)[nH]c4ncccc43)CC2)c1=O`, in data set [3], the inhibition constant Ki amounted to 1750 nM.
Take `Cn1cc(C2C=NC=N2)cc(NC(=O)N2CCC(n3c(=O)[nH]c4ncccc43)CC2)c1=O` (stereo not given): the Ki in data set [3] came to 2050 nM.
On to `O=C(Nc1cc(-c2ccccc2F)cn(CC(F)(F)F)c1=O)N1CCC(n2c(=O)[nH]c3ncccc32)CC1`, for which the half-inhibitory concentration (IC50) in [1] was found to be 186 nM. Besides, in data set [3], the Ki was 54 nM.
On the same counts, the results for `Cn1cc(-c2cccc(F)c2F)cc(NC(=O)N2CCC(n3c(=O)[nH]c4ncccc43)CC2)c1=O` are 567 nM and 166 nM.
